Measurements published in ChEMBL document CHEMBL1201862, “PubChem BioAssay data set” (2004).
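A five-concentration, 48-hour dose response in 96-well plates underlies each endpoint, interpolated linearly between surrounding concentrations. GI50: concentration for 50% inhibition of growth.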 The source made the active and inactive calls. Rule as the data show it: active = GI50 up to about 1.1 µM and inactive = higher.

How the values were obtained:
Test in all cases: NCI tumour cell line growth inhibition, 48 h
DU-145 = tested on: DU-145
HL-60 = tested on: HL-60
SK-OV-3 = tested on: SK-OV-3
PC-3 = tested on: PC-3
UO-31 = tested on: UO-31
A498 = tested on: A498
OVCAR-3 = tested on: OVCAR-3
SNB-75 = tested on: SNB-75
NCI-H460 = tested on: NCI-H460
MDA-MB-231 = tested on: MDA-MB-231
UACC-257 = tested on: UACC-257
SF-268 = tested on: SF-268
786-0 = tested on: 786-0
SK-MEL-5 = tested on: SK-MEL-5
OVCAR-4 = tested on: OVCAR-4
HT-29 = tested on: HT-29
MDA-MB-435 = tested on: MDA-MB-435
Malme-3M = tested on: Malme-3M
OVCAR-8 = tested on: OVCAR-8
M14 = tested on: M14

Measured: GI50

CC[N+](C)(CC)CCN1C(=O)c2ccccc2S1(=O)=O
inactive: DU-145 > 100 µM | HL-60 > 100 µM | SK-OV-3 > 100 µM | PC-3 > 100 µM | UO-31 > 100 µM | A498 > 100 µM | OVCAR-3 > 100 µM | SNB-75 > 100 µM | NCI-H460 > 100 µM | MDA-MB-231 > 100 µM | UACC-257 > 100 µM | SF-268 > 100 µM | 786-0 > 100 µM | SK-MEL-5 > 100 µM | OVCAR-4 > 100 µM | HT-29 > 100 µM | MDA-MB-435 > 100 µM | Malme-3M > 100 µM | OVCAR-8 > 100 µM | M14 > 100 µM

COC1=CC(=O)C[C@@H](C)[C@]12Oc1c(Cl)c(OC)cc(OC)c1C2=O [GRISEOFULVIN]
inactive: DU-145 39.7 µM | HL-60 6.7 µM | SK-OV-3 35.4 µM | PC-3 10.8 µM | UO-31 43.7 µM | A498 > 47.2 µM | OVCAR-3 37.3 µM | SNB-75 4.5 µM | NCI-H460 28 µM | MDA-MB-231 6.41 µM | UACC-257 > 20.5 µM | SF-268 > 68.9 µM | 786-0 50.1 µM | SK-MEL-5 7.62 µM | OVCAR-4 38.2 µM | HT-29 16.8 µM | MDA-MB-435 2.42 µM | Malme-3M 76.4 µM | OVCAR-8 30.1 µM | M14 9.48 µM
